Data on 4 compounds can be found in paper PMC7305224, “Mutually stabilizing interactions between proto-peptides and RNA” (Nature Communications, 2020).

The experiment deals with RNA duplex 1. The experiment is described as follows: CD analysis of RNA duplex with peptides/depsipeptides. The class given is binding. The note with it: RNA duplex 5 µM, peptide/depsipeptide 0–10 µM, MES-TEA buffer (60 mM). An excerpt:
The gel was cropped at the edges for clarity. […] […] Red and blue colors of the filled circles correspond to curves of the same color in panel (c). […] […] Scans were from 320 nm to 220 nm with a bandwidth of 5 nm, data pitch of 0.2 nm, and scan rate of 50 nm/min with three accumulations. […] Data were collected in independent triplicates and the data were averaged. Finally, data were smoothed and plotted using Matlab.

“Also recorded” adds a separate entry of the source. Non-standard residues stand in square brackets, D forms with d. Residues, ends and D or L forms follow the SMILES beside them. Dab = NCC[C@H](N)C(=O)O

As for `CC(=O)N[C@@H](Cc1ccc(O)cc1)C(=O)NCC(=O)N[C@@H](C)C(=O)N[C@@H](CCN)C(=O)N[C@@H](CCCCN)C(=O)N[C@@H](C)C(=O)N[C@@H](CCN)C(=O)N[C@@H](CCCCN)C(=O)N[C@@H](C)C(=O)N[C@@H](CCN)C(=O)N[C@@H](CCCCN)C(N)=O` (Ac-YGA[Dab]KA[Dab]KA[Dab]K-NH2), the “changes in CD spectra of the RNA duplex upon addition” value is recorded as “physical association”. Same read-out and setting: under `CC(=O)N[C@@H](Cc1ccc(O)cc1)C(=O)NCC(=O)N[C@@H](C)C(=O)N[C@@H](CCN)C(=O)N[C@@H](CCCCN)C(=O)N[C@@H](C)C(=O)N[C@@H](CCN)C(=O)N[C@@H](CCCCN)C(N)=O` [Ac-Tyr-Gly-Ala-Dab-Lys-Ala-Dab-Lys-NH2] (Ac-YGA[Dab]KA[Dab]K-NH2) stands “physical association”; under `CC(=O)N[C@@H](Cc1ccc(O)cc1)C(=O)NCC(=O)N[C@@H](C)C(=O)N[C@@H](CCN)C(=O)N[C@@H](CCCCN)C(N)=O` [Ac-Tyr-Gly-Ala-Dab-Lys-NH2] (Ac-YGA[Dab]K-NH2), “physical association”. In the case of `CC(=O)N[C@@H](Cc1ccc(O)cc1)C(=O)NCC(=O)N[C@@H](C)C(=O)N[C@@H](CCN)C(=O)N[C@@H](CCCCN)C(=O)N[C@@H](C)C(=O)N[C@@H](CCN)C(=O)N[C@@H](CCCCN)C(=O)N[C@@H](C)C(=O)N[C@@H](CCN)C(=O)N[C@@H](CCCCN)C(=O)N[C@@H](C)C(=O)N[C@@H](CCN)C(=O)N[C@@H](CCCCN)C(N)=O` (Ac-YGA[Dab]KA[Dab]KA[Dab]KA[Dab]K-NH2), the “changes in CD spectra of the RNA duplex upon addition” value (listed as Ac-Tyr-Gly-(Ala-Dab-Lys)4-NH2) is given as “physical association; also recorded: changes were observed in the CD spectra”.
